What all share (type): ADME, organism-based
Series [1] can be described thus: Tmax in […] at […], po administered as single dose measured on day 17 by HPLC in presence of 29 doses of […]. The note with it: human, in vivo.
Series [2] in a line: Cmax in […] at […], po administered as single dose measured on day 1 by HPLC. Set-up: route oral. To be noted: human, in vivo.
Series [3] in a line: Apparent volume of distribution during terminal phase in […] at […], po administered as single dose measured on day 3 by HPLC in presence of […]. The note with it: human, in vivo, read-out: Vz/F.
The nature of series [4]: AUC (0 to infinity) in […] at […], po administered as single dose measured on day 1 by HPLC. Set-up: route oral, time infinity. To be noted: human, plasma.
Series [5] is described as follows: Tmax in […] at […], po administered as single dose measured on day 1 by HPLC. To be noted: human, in vivo. Also on record: route oral.
Series [6] can be described thus: Apparent volume of distribution during terminal phase in […] at […], po administered as single dose measured on day 17 by HPLC in presence of 29 doses of […]. To be noted: human, in vivo, read-out: Vz/F.
Series [7] is described as follows: AUC (0 to infinity) in […] at […], po administered as single dose measured on day 17 by HPLC in presence of 29 doses of […]. Also on record: route oral, time infinity. The note with it: human, plasma.
Series [8] can be described thus: Cmax in rat in presence of ritonavir. The note with it: in vivo.
Series [9] is described as follows: AUC (0 to infinity) in […] at […], po administered as single dose measured on day 3 by HPLC in presence of […]. To be noted: human, plasma. Also on record: time infinity, route oral.
The nature of series [10]: Oral bio availability in rat in presence of ritonavir. To be noted: in vivo.
Series [11] is described as follows: AUC in rat in presence of ritonavir. The note with it: plasma.
The nature of series [12]: Apparent volume of distribution during terminal phase in […] at […], po administered as single dose measured on day 1 by HPLC. Also on record: route oral. The note with it: human, in vivo, read-out: Vz/F.
Series [13] in a line: Cmax in […] at […], po administered as single dose measured on day 3 by HPLC in presence of […]. Set-up: route oral. The note with it: human, in vivo.
The nature of series [14]: Tmax in […] at […], po administered as single dose measured on day 3 by HPLC in presence of […]. The note with it: human, in vivo.
A short description of series [15]: Cmax in […] at […], po administered as single dose measured on day 17 by HPLC in presence of 29 doses of […]. The note with it: human, in vivo. Set-up: route oral.

This note sets out measurements from ChEMBL document CHEMBL1255318, “Effect of low-dose ritonavir on the pharmacokinetics of the CXCR4 antagonist AMD070 in healthy volunteers” (Antimicrob Agents Chemother, 2008).

Usually Tmax stands for the time from dosing to the highest level. For orientation: Cmax means the maximum level reached in the sampled fluid or tissue. What is called AUC(0-inf) is total exposure, with the tail of the curve extrapolated. By bioavailability is commonly meant dose-corrected exposure relative to a reference, in per cent. One may read the AUC as concentration integrated over time. Regarding `NCCCCN(Cc1nc2ccccc2[nH]1)[C@H]1CCCc2cccnc21` [MAVORIXAFOR], the Tmax is 1 h in series [1], 3 h in series [5] and 2 h in [14]. Also, the Cmax stood at 256 ng/mL in [2], 158 ng/mL in series [8], 362 ng/mL in series [13] and 333 ng/mL in series [15]. Besides, the Vd/F worked out at 3450 L in series [3], 3930 L in [6] and 4200 L in [12]. Besides, the AUC(0-inf) in [4] was 934 ng·h/mL; in series [7], 1200 ng·h/mL; in series [9], 1640 ng·h/mL. The bioavailability in series [10] is 66%. In addition, the AUC in series [11] stood at 58 ng·h/mL.
